Test results published in ChEMBL document CHEMBL4396887, “Five-Membered N-Heterocyclic Scaffolds as Novel Amino Bioisosteres at γ-Aminobutyric Acid (GABA) Type A Receptors and GABA Transporters” (J Med Chem, 2019).
One block for each compound: values may come before it. Activity calls are given as the source filed them. The rule behind the calls is not given here.

Experiments:
[1] = molecular target: T1, Gamma-aminobutyric acid receptor subunit alpha-4/beta-2/gamma-2 (Homo sapiens, UniProt P47870+P18507+P48169); experiment: Agonist activity at recombinant human GABA-A alpha4beta2gamma2S receptor transiently expressed in human tsA201 cells at >= 100 uM incubated for 30 mins and measured up to 90 secs by FMP dye based FLIPR membrane potential blue assay; assay type: cell-based
[2] = molecular target: T2, Gamma-aminobutyric acid receptor subunit rho-1 (Homo sapiens, UniProt P24046); experiment: Agonist activity at recombinant human GABA-A rho-1 receptor transiently expressed in human tsA201 cells at 300 uM incubated for 30 mins and measured up to 90 secs by FMP dye based FLIPR membrane potential blue assay; assay type: cell-based
T2 sequence (P24046 whole entry): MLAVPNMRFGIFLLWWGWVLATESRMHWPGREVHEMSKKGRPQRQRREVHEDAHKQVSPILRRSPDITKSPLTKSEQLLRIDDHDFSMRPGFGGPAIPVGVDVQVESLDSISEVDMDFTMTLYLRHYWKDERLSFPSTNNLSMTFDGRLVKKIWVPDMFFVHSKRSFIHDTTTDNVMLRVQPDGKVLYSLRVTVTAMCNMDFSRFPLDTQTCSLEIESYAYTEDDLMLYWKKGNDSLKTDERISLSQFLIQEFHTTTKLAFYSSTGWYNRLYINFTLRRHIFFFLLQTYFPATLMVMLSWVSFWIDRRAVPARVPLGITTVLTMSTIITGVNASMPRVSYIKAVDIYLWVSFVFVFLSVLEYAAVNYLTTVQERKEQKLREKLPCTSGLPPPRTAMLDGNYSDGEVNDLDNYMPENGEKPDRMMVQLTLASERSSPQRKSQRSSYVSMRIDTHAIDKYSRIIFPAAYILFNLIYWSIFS

[3] = molecular target: T2, Gamma-aminobutyric acid receptor subunit rho-1; experiment: Antagonist activity at recombinant human GABA-A rho-1 receptor transiently expressed in human tsA201 cells incubated for 30 mins and measured up to 90 secs by FMP dye based FLIPR membrane potential blue assay; assay type: cell-based
[4] = Ionization constant, pKa2 of the compound at 1 mM by potentiometric titration assay; assay type: physicochemical
[5] = molecular target: T3, GABA-A receptor; alpha-1/beta-2/gamma-2 (Homo sapiens) (UniProt P14867+P47870+P18507); experiment: Agonist activity at recombinant human GABA-A alpha1beta2gamma2S receptor transiently expressed in human tsA201 cells incubated for 30 mins and measured up to 90 secs by FMP dye based FLIPR membrane potential blue assay; assay type: cell-based
[6] = molecular target: T1, Gamma-aminobutyric acid receptor subunit alpha-4/beta-2/gamma-2; experiment: Agonist activity at recombinant human GABA-A alpha4beta2gamma2S receptor transiently expressed in human tsA201 cells at >= 300 uM incubated for 30 mins and measured up to 90 secs by FMP dye based FLIPR membrane potential blue assay; assay type: cell-based
[7] = molecular target: T3, GABA-A receptor; alpha-1/beta-2/gamma-2 (Homo sapiens); experiment: Agonist activity at recombinant human GABA-A alpha1beta2gamma2S receptor transiently expressed in human tsA201 cells at >= 1000 uM incubated for 30 mins and measured up to 90 secs by FMP dye based FLIPR membrane potential blue assay; assay type: cell-based
[8] = species on record: Homo sapiens; experiment: Selectivity ratio of IC50 for human GAT1 expressed in Flp-In CHO cells to IC50 for human BGT1 expressed in Flp-In CHO cells; assay type: cell-based
[9] = species on record: Homo sapiens; experiment: Selectivity ratio of IC50 for human GAT2 expressed in Flp-In CHO cells to IC50 for human BGT1 expressed in Flp-In CHO cells; assay type: cell-based
[10] = species on record: Homo sapiens; experiment: Selectivity ratio of IC50 for human GAT3 expressed in Flp-In CHO cells to IC50 for human BGT1 expressed in Flp-In CHO cells; assay type: cell-based
[11] = molecular target: T3, GABA-A receptor; alpha-1/beta-2/gamma-2 (Homo sapiens); experiment: Agonist activity at recombinant human GABA-A alpha1beta2gamma2S receptor transiently expressed in human tsA201 cells at >= 300 uM incubated for 30 mins and measured up to 90 secs by FMP dye based FLIPR membrane potential blue assay; assay type: cell-based
[12] = molecular target: T2, Gamma-aminobutyric acid receptor subunit rho-1; experiment: Agonist activity at recombinant human GABA-A rho-1 receptor transiently expressed in human tsA201 cells at >= 100 uM incubated for 30 mins and measured up to 90 secs by FMP dye based FLIPR membrane potential blue assay; assay type: cell-based
[13] = species on record: Homo sapiens; experiment: Agonist activity at recombinant human GABA-A alpha3beta2gamma2S receptor transiently expressed in human tsA201 cells at >= 300 uM incubated for 30 mins and measured up to 90 secs by FMP dye based FLIPR membrane potential blue assay; assay type: cell-based
[14] = species on record: Homo sapiens
[15] = molecular target: T1, Gamma-aminobutyric acid receptor subunit alpha-4/beta-2/gamma-2; experiment: Agonist activity at recombinant human GABA-A alpha4beta2gamma2S receptor transiently expressed in human tsA201 cells at >= 1000 uM incubated for 30 mins and measured up to 90 secs by FMP dye based FLIPR membrane potential blue assay; assay type: cell-based
[16] = species on record: Homo sapiens; experiment: Agonist activity at recombinant human GABA-A alpha3beta2gamma2S receptor transiently expressed in human tsA201 cells at >= 100 uM incubated for 30 mins and measured up to 90 secs by FMP dye based FLIPR membrane potential blue assay; assay type: cell-based

SMILES: C[C@@H]1SC(N)=N[C@@H]1CC(=O)O (relative stereo)
pEC50 [5]: inactive | Activity [6]: Active | Activity [7]: Active | Activity [2]: inactive | IC50 [3]: 100 µM

SMILES: C[C@H]1SC(N)=N[C@@H]1CC(=O)O (relative stereo)
pEC50 [5]: inactive | Activity [11]: Active | Activity [6]: Active | Activity [12]: Active | Activity [13]: Active | pEC50 [14]: inactive

SMILES: O=C(O)C[C@@H]1CCNC1
pEC50 [5]: inactive | Activity [11]: Active | Activity [16]: Active | Activity [6]: Active | Activity [12]: Active | pEC50 [14]: inactive

SMILES: O=C(O)CC1CNC=N1 (configuration not stated)
pKa at 1000 µM [4]: 9.63

Continued, in another order:

Activity [1]: Active | Activity [2]: inactive | IC50 [3]: 300 µM
SMILES: C[C@@H](C(=O)O)[C@H]1CSC(N)=N1 (relative stereo)

pKa at 1000 µM [4]: 8.62
SMILES: NC1=NC(CC(=O)O)CS1 (configuration not stated)

pKa at 1000 µM [4]: 10.1
SMILES: NC1=NC(CC(=O)O)CN1 (configuration not stated)
Ratio IC50 [8]: 14 to 44 | Ratio IC50 [9]: 14 to 44 | Ratio IC50 [10]: 14 to 44

Activity [15]: Active
SMILES: C[C@@H](C(=O)O)[C@@H]1CSC(N)=N1 (relative stereo)
